One may read the inhibition as the share of the control response that was lost under treatment. What is called IC50 is the concentration at which inhibition is half-maximal. Broadly, the Cmax is the peak of the concentration-time curve.

In series [1] the target is Amyloid-beta precursor protein (Homo sapiens) (UniProt P05067). Briefly: Inhibition of Cu2+-induced amyloid beta (1 to 42) (unknown origin) aggregation at 25 uM by ThT fluorescence assay.
In series [2] the target is T1, Amine oxidase [flavin-containing] B (Homo sapiens, UniProt P27338).
T1 sequence (P27338 whole entry): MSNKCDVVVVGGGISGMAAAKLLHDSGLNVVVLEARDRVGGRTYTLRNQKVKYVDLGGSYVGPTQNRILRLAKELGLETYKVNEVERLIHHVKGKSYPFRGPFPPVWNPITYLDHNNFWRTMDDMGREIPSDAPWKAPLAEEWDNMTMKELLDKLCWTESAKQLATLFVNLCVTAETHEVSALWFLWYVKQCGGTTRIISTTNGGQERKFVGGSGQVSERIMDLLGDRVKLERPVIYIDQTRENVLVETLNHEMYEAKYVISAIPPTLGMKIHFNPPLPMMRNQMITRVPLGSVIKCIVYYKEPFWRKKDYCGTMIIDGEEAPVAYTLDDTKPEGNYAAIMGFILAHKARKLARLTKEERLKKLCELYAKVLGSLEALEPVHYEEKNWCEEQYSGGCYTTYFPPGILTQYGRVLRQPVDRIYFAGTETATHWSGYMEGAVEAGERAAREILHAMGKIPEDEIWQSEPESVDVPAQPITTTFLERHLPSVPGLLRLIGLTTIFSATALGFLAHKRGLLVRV
Briefly: Inhibition of human recombinant MAO-B.

The nature of series [3]: Cmax in BALB/c mouse brain at 30 mg/kg, ig. The following applies: po. In kind it is ADME, organism-based.
The nature of series [4]: Selectivity index, ratio of IC50 for human recombinant MAO-A to IC50 for human recombinant MAO-B.
The test system of series [5] is BV-2. The series can be described thus: Anti-neuroinflammatory activity against LPS-stimulated mouse BV-2 cells assessed as inhibition of NO release at 0.5 uM incubated for 24 hrs by Griess reagent based assay. It counts as functional. Background: The Griess reaction detects nitrite, a stable product of nitric oxide.
Series [6] is described as follows: Metal chelating activity assessed as compound-Cu2+ complex formation at stoichiometric ratio of 1:1 in presence of CuCl2 by UV-Vis spectroscopy.
The test system of series [7] is Mus musculus. Briefly: Antialzheimer activity against amyloid beta (1-42)-induced alzheimer's disease mouse model assessed as decrease in cognitive impairment by measuring increase in number of crossing the target area in spatial probe trial at 8 to 32 mg/kg and measured on day 6 by Morris water maze test. It counts as functional, organism-based. Particulars: dose 8-32 mg/kg, time 6.0 day.

Series [8] concerns PC-12. Briefly: Cytotoxicity against rat PC12 cells assessed as effect on cell viability at 2.5 to 25 uM by MTT assay. It counts as toxicity, cell-based. Particulars: pc-12, 25 µM, dose 2.5-25 µM. Background: Formazan colour is commonly taken as a measure of viable cells.
Series [9] has as its system Mus musculus. Briefly: Anti-inflammatory activity against amyloid beta (1 to 42)-induced alzheimer's disease mouse model assessed as decrease in TNF-alpha content in hippocampus at 8 to 32 mg/kg and measured on day 6. In kind it is functional, organism-based. Particulars: dose 8-32 mg/kg, time 6.0 day.
The test system of series [10] is BV-2. Briefly: Cytotoxicity against mouse BV-2 cells assessed as effect on cell viability at 2.5 to 25 uM by MTT assay. It counts as toxicity, cell-based. The following applies: bv-2, 25 µM, dose 2.5-25 µM.
Series [11] deals with T2, Amine oxidase [flavin-containing] A (Homo sapiens, UniProt P21397).
T2 sequence (P21397 whole entry): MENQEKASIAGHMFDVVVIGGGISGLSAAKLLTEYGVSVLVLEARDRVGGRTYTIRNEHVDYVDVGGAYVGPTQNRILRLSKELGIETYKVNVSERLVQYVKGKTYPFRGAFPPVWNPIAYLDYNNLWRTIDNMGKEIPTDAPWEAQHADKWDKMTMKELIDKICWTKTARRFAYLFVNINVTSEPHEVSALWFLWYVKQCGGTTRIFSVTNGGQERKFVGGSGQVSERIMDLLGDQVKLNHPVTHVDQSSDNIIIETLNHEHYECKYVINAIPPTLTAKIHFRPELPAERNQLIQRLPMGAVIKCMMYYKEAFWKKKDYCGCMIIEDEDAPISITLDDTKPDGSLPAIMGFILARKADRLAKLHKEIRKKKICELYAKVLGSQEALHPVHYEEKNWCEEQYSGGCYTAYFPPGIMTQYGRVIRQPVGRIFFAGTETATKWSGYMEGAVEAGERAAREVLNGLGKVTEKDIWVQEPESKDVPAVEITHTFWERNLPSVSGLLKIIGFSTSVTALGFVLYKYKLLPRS
Briefly: Inhibition of human recombinant MAO-A.

Series [12] relates to Mus musculus. Briefly: Antialzheimer activity against amyloid beta (1-42)-induced alzheimer's disease mouse model assessed as decrease in cognitive impairment by measuring decrease in escape latency time during training phase at 8 to 32 mg/kg and measured for 5 days by Morris water maze test. It counts as functional, organism-based. Particulars: dose 8-32 mg/kg, time 5.0 day.

Series [13] is described as follows: Permeability of the compound at 100 ug/ml by PAMPA-BBB assay. The following applies: dose 100 µg/ml, read-out: permeability. In kind it is ADME. (In general: In PAMPA a lipid-coated filter parts donor from acceptor wells.)
Series [14] deals with Amyloid-beta precursor protein (Homo sapiens) (UniProt P05067). Briefly: Disaggregation of Cu2+-induced amyloid beta (1 to 42) (unknown origin) preformed fibrils assessed as decrease in size of aggregates incubated for 24 hrs by transmission electron microcopy.
For series [15] the target is unchanged. Briefly: Disaggregation of self-induced amyloid beta (1 to 42) (unknown origin) preformed fibrils assessed as reduction in long fibrils formed incubated for 24 hrs by transmission electron microscopy.
The test system of series [16] is Mus musculus. The series can be described thus: Antialzheimer activity against amyloid beta (1-42)-induced alzheimer's disease mouse model assessed as decrease in cognitive impairment by measuring increase in time spent in target quadrant in spatial probe trial at 8 to 32 mg/kg and measured on day 6 by Morris water maze test. It counts as functional, organism-based. Particulars: dose 8-32 mg/kg, time 6.0 day.

Series [17] deals with PC-12. Briefly: Neuroprotective activity against H2O2-induced cytotoxicity in rat PC12 cells assessed as cell viability at 10 uM by MTT assay (reference value: 54.9%). In kind it is functional. Particulars: read-out: Activity.

The structures appear in SMILES notation. Active and inactive are the calls of the source. No cut-off for these calls is given here.

Amyloid-beta precursor protein (Homo sapiens), sequence (P05067 whole entry): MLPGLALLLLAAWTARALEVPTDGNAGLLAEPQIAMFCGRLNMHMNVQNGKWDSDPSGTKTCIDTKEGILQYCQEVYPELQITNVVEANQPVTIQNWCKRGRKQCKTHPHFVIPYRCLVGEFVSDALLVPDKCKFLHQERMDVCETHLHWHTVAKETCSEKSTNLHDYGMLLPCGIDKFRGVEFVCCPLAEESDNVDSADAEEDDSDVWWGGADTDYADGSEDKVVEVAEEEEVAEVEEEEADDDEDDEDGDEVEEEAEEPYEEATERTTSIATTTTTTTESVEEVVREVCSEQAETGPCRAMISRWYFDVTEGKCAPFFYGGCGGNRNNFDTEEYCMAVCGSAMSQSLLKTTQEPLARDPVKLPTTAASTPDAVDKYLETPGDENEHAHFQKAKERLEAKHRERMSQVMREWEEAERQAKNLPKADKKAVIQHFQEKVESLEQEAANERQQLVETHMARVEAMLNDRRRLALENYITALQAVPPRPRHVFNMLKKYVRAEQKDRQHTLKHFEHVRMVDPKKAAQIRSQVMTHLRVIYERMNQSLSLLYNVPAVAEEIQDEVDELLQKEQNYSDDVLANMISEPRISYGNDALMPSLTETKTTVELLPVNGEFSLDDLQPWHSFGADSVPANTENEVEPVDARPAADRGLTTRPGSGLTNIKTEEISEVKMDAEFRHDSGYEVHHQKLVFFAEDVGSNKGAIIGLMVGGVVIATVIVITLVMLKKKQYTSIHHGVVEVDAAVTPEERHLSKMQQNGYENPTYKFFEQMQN

For `CCCCCCCC1OC(=O)c2cc(N3N=C(c4cc(Cl)ccc4O)CC3=O)ccc21` (configuration not stated), the inhibition in series [1] came to 57.5%. In addition, the figures for the 50% inhibitory concentration (IC50) in series [2] and in series [11] were 410 nM and above 10000 nM, respectively. The compound also yielded a Cmax in series [3] of 923 ng/g. In series [4], the Ratio IC50 was above 24.4. In addition, the inhibition at 0.5 µM in the series with BV-2 [5] was 25.9%. Besides, the result (in series [6]; in the series with Mus musculus [7]; with Mus musculus [9]; with Mus musculus [12]; in series [14]; in series [15]) was Active. In the series on Mus musculus [16], the outcome was Active. Besides, the Activity result in the series with PC-12 [8] and in the series with BV-2 [10] was “Non-Toxic” throughout. Moreover, the Papp at 100 ug/ml in [13] came to 6.37 ×10⁻⁶ cm/s. For the same compound, the viability at 10 µM with PC-12 [17] turned out to be 77.7%.

(Values after ChEMBL document CHEMBL5620344, “Discovery of novel 5-(2-hydroxyphenyl)-2-phthalide-3(3H)-pyrazolones as balanced multifunctional agents against Alzheimer's disease” (Eur J Med Chem, 2023).)
